Measured values as given in patent US20240285571A1, “METHODS OF TREATING BONE INFECTIONS” (MICROBION CORPORATION, priority 2020, published 2024).
≈ marks a conversion by molar mass, not a printed value. Where two headings read alike, the source gives them in different places. Each block holds one compound with its values, some of them ahead of it.

Experiments:
Format in all cases: cell-based
[1] = tested on: relevant ATCC QC organisms; test: Broth microdilution MIC, QC (Example 6)
Summary of the method: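 QC strains were tested per CLSI broth microdilution in cation-adjusted Mueller Hinton broth, with Ca2+ supplemented for daptomycin, at about 5×10^5 CFU/mL. Incubation was at 35° C for 16–20 hr, or 24 hr for vancomycin against S. aureus. The MIC was the lowest concentration inhibiting visible growth.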

Klebsiella pneumoniae = test: Broth microdilution MIC (Example 6); conditions: Klebsiella pneumoniae
Experimental: (§1) Test Compounds: The test agents BisEDT (MB-1-B3; Lot No. ED268-1-11-01), MB-2B, and MB-6 were stored at room temperature, in the dark, until assayed.
(§2) For testing daptomycin, calcium was supplemented with […] Ca^2+, resulting in a final concentration of […] Ca^2+ (2, 3).
(§3) MIC Assay Procedure: MIC values were determined using a broth microdilution procedure described by CLSI (2, 3).
(§4) The Biomek 2000 was then used to make 2-fold serial dilutions in the mother plates from column 1 through column 11. The wells of column 12 contained no drug and served as the organism growth control wells for the assay.
(§5) The test panels were prepared on the Biomek FX instrument which transferred 2 μL of drug solution from each well of a mother plate to the corresponding well of each daughter plate in a single step.
(§6) A standardized inoculum of each test organism was prepared per CLSI methods to equal a 0.5 McFarland standard, followed by a dilution of 1:20. The plates were then inoculated with 10 μL of the diluted inoculum using the Biomek 2000 from low to high drug concentration resulting in a final concentration of approximately 5×10^5 CFU/mL.
(§7) Plates were stacked 3-4 high, covered with a lid on the top plate, placed into plastic bags, and incubated at 35° C. for 16 to 20 hr (vancomycin was read for S. aureus after 24 hr incubation time). The MIC was recorded as the lowest concentration of drug that inhibited visible growth of the organism.

Escherichia coli = test: Broth microdilution MIC (Example 6); conditions: Escherichia coli
Experimental: as §1, §2, §3, §4, §5, §6, §7

Pseudomonas aeruginosa = test: Broth microdilution MIC (Example 6); conditions: Pseudomonas aeruginosa
Experimental: as §1, §2, §3, §4, §5, §6, §7

Acinetobacter baumannii = test: Broth microdilution MIC (Example 6); conditions: Acinetobacter baumannii
Summary of the method: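 CLSI broth microdilution in cation-adjusted Mueller Hinton broth, test agents 0.06-64 μg/mL from DMSO stocks, inoculum approx. 5×10^5 CFU/mL. Incubation 35° C for 16–20 hr; MIC taken as lowest concentration inhibiting visible growth.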

[2] = K. pneumoniae CDC 135, ESBL/VIM, read-out: MIC
[3] = K. pneumoniae MMX 9029, ESBL, read-out: MIC
[4] = ATCC35218, E. coli ATCC 35218, ESBL, read-out: MIC
[5] = E. coli MMX 5755, ESBL, read-out: MIC
[6] = E. coli MMX 5756, ESBL, read-out: MIC
[7] = E. coli MMX 5758, ESBL, read-out: MIC
[8] = P. aeruginosa isolate CDC 230, β-lactamase type VIM/OXA, read-out: MIC
[9] = P. aeruginosa isolate CDC 241, β-lactamase type IMP/OXA, read-out: MIC
[10] = P. aeruginosa isolate CDC 439, β-lactamase type IMP, read-out: MIC
[11] = P. aeruginosa isolate CDC 444, β-lactamase type VIM, read-out: MIC
[12] = P. aeruginosa isolate CDC 457, β-lactamase type VIM, read-out: MIC

Structure (SMILES): OCC(S)CS.[Bi] (stereo not drawn) [MB-2B, bismuth-2,3-dimercaptopropanol]
MIC ([1]; Escherichia coli, ATCC25922): 2 µg/mL
MIC ([1]; Escherichia coli, ATCC35218): 2 µg/mL
MIC ([1]; Klebsiella pneumoniae, ATCCBAA1705): 4 µg/mL
MIC ([1]; Pseudomonas aeruginosa, ATCC27853): 2 µg/mL
MIC ([1]; Staphylococcus aureus, ATCC29213): 1 µg/mL
MIC (Klebsiella pneumoniae; ATCCBAA1705, K. pneumoniae ATCC BAA-1705, ESBL/KPC): 4 µg/mL
MIC (Klebsiella pneumoniae; K. pneumoniae CDC 112, KPC): 4 µg/mL
MIC (Klebsiella pneumoniae; K. pneumoniae CDC 113, ESBL/KPC): 32 µg/mL
MIC (Klebsiella pneumoniae; K. pneumoniae CDC 115, ESBL/KPC): 16 µg/mL
MIC (Klebsiella pneumoniae; K. pneumoniae CDC 120, ESBL/KPC): 4 µg/mL
MIC (Klebsiella pneumoniae; K. pneumoniae CDC 126, ESBL/KPC): 32 µg/mL
MIC (Klebsiella pneumoniae; K. pneumoniae CDC 129, ESBL/KPC): 4 µg/mL
MIC (Klebsiella pneumoniae; [2]): 8 µg/mL
MIC (Klebsiella pneumoniae; K. pneumoniae CDC 138, ESBL/NDM): 16 µg/mL
MIC (Klebsiella pneumoniae; K. pneumoniae CDC 158, ESBL/NDM/OXA): 4 µg/mL
MIC (Klebsiella pneumoniae; [3]): 2 µg/mL
MIC (Escherichia coli; [4]): 2 µg/mL
MIC (Escherichia coli; ATCCBAA2471, E. coli ATCC BAA-2471, NDM): 2 µg/mL
MIC (Escherichia coli; E. coli CDC 114, ESBL/KPC): 2 µg/mL
MIC (Escherichia coli; E. coli CDC 118, ESBL/NDM): 4 µg/mL
MIC (Escherichia coli; E. coli CDC 435, NDM): 2 µg/mL
MIC (Escherichia coli; E. coli CDC 451, KPC): 2 µg/mL
MIC (Escherichia coli; E. coli CDC 503, ESBL/NDM): 2 µg/mL
MIC (Escherichia coli; E. coli MMX 5745, KPC): 4 µg/mL
MIC (Escherichia coli; [5]): 4 µg/mL
MIC (Escherichia coli; [6]): 2 µg/mL
MIC (Escherichia coli; [7]): 4 µg/mL
MIC (Pseudomonas aeruginosa; [8]): 4 µg/mL
MIC (Pseudomonas aeruginosa; P. aeruginosa isolate CDC 231, β-lactamase type KPC/OXA): 16 µg/mL
MIC (Pseudomonas aeruginosa; [9]): 32 µg/mL
MIC (Pseudomonas aeruginosa; P. aeruginosa isolate CDC 246, β-lactamase type NDM/OXA): 8 µg/mL
MIC (Pseudomonas aeruginosa; P. aeruginosa isolate CDC 250, β-lactamase type NDM/OXA): 8 µg/mL
MIC (Pseudomonas aeruginosa; P. aeruginosa isolate CDC 356, β-lactamase type KPC): 4 µg/mL
MIC (Pseudomonas aeruginosa; [10]): 4 µg/mL
MIC (Pseudomonas aeruginosa; [11]): 4 µg/mL
MIC (Pseudomonas aeruginosa; [12]): 32 µg/mL
MIC (Pseudomonas aeruginosa; P. aeruginosa isolate CDC 516, β-lactamase type KPC/AmpC): 4 µg/mL
MIC (Pseudomonas aeruginosa; P. aeruginosa isolate CDC 518, β-lactamase type KPC/AmpC): 4 µg/mL
MIC (Acinetobacter baumannii; A. baumannii isolate CDC 273, β-lactamase type ESBL/OXA): 32 µg/mL
MIC (Acinetobacter baumannii; A. baumannii isolate CDC 274, β-lactamase type ESBL/OXA): 32 µg/mL
MIC (Acinetobacter baumannii; A. baumannii isolate CDC 275, β-lactamase type ESBL/OXA): 32 µg/mL
MIC (Acinetobacter baumannii; A. baumannii isolate CDC 277, β-lactamase type ESBL/OXA): > 16 µg/mL
MIC (Acinetobacter baumannii; A. baumannii isolate CDC 284, β-lactamase type ESBL/OXA): > 16 µg/mL
MIC (Acinetobacter baumannii; A. baumannii isolate CDC 307, β-lactamase type OXA): 32 µg/mL
MIC (Acinetobacter baumannii; A. baumannii isolate CDC 308, β-lactamase type ESBL/OXA): 32 µg/mL
MIC (Acinetobacter baumannii; A. baumannii isolate CDC 311, β-lactamase type OXA): 32 µg/mL
MIC (Acinetobacter baumannii; A. baumannii isolate CDC 312, β-lactamase type OXA): 32 µg/mL
MIC (Acinetobacter baumannii; A. baumannii isolate CDC 313, β-lactamase type ESBL/OXA): 32 µg/mL
MIC (Acinetobacter baumannii; NCTC13304, A. baumannii isolate NCTC 13304, β-lactamase type OXA): > 16 µg/mL

MIC ([1]; Escherichia coli, ATCC25922, E. coli ATCC 25922, read-out: MIC): 1 µg/mL
MIC ([1]; Escherichia coli, ATCC35218, E. coli ATCC 35218, read-out: MIC): 1 µg/mL
MIC ([1]; Klebsiella pneumoniae, ATCCBAA1705, K. pneumoniae ATCC BAA-1705, read-out: MIC): 16 µg/mL
MIC ([1]; Pseudomonas aeruginosa, ATCC27853, P. aeruginosa ATCC 27853, read-out: MIC): 2 µg/mL
MIC (Klebsiella pneumoniae; ATCCBAA1705, K. pneumoniae ATCC BAA-1705, ESBL/KPC, read-out: MIC): 16 µg/mL (≈ 27.3 µM)
MIC (Klebsiella pneumoniae; K. pneumoniae CDC 112, KPC, read-out: MIC): 16 µg/mL (≈ 27.3 µM)
MIC (Klebsiella pneumoniae; K. pneumoniae CDC 113, ESBL/KPC, read-out: MIC): 16 µg/mL (≈ 27.3 µM)
MIC (Klebsiella pneumoniae; K. pneumoniae CDC 115, ESBL/KPC, read-out: MIC): 0.5 µg/mL (≈ 0.854 µM)
MIC (Klebsiella pneumoniae; K. pneumoniae CDC 120, ESBL/KPC, read-out: MIC): 16 µg/mL (≈ 27.3 µM)
MIC (Klebsiella pneumoniae; K. pneumoniae CDC 126, ESBL/KPC, read-out: MIC): 2 µg/mL (≈ 3.42 µM)
MIC (Klebsiella pneumoniae; K. pneumoniae CDC 129, ESBL/KPC, read-out: MIC): 32 µg/mL (≈ 54.6 µM)
MIC (Klebsiella pneumoniae; [2]): 16 µg/mL (≈ 27.3 µM)
MIC (Klebsiella pneumoniae; K. pneumoniae CDC 138, ESBL/NDM, read-out: MIC): > 64 µg/mL
MIC (Klebsiella pneumoniae; K. pneumoniae CDC 158, ESBL/NDM/OXA, read-out: MIC): 2 µg/mL (≈ 3.42 µM)
MIC (Klebsiella pneumoniae; [3]): 0.5 µg/mL (≈ 0.854 µM)
MIC (Escherichia coli; [4]): 1 µg/mL (≈ 1.71 µM)
MIC (Escherichia coli; ATCCBAA2471, E. coli ATCC BAA-2471, NDM, read-out: MIC): 64 µg/mL (≈ 109 µM)
MIC (Escherichia coli; E. coli CDC 114, ESBL/KPC, read-out: MIC): 1 µg/mL (≈ 1.71 µM)
MIC (Escherichia coli; E. coli CDC 118, ESBL/NDM, read-out: MIC): > 64 µg/mL
MIC (Escherichia coli; E. coli CDC 435, NDM, read-out: MIC): > 64 µg/mL
MIC (Escherichia coli; E. coli CDC 451, KPC, read-out: MIC): 4 µg/mL (≈ 6.83 µM)
MIC (Escherichia coli; E. coli CDC 503, ESBL/NDM, read-out: MIC): > 64 µg/mL
MIC (Escherichia coli; E. coli MMX 5745, KPC, read-out: MIC): 0.5 µg/mL (≈ 0.854 µM)
MIC (Escherichia coli; [5]): 16 µg/mL (≈ 27.3 µM)
MIC (Escherichia coli; [6]): 64 µg/mL (≈ 109 µM)
MIC (Escherichia coli; [7]): 1 µg/mL (≈ 1.71 µM)
MIC (Pseudomonas aeruginosa; [8]): > 64 µg/mL
MIC (Pseudomonas aeruginosa; P. aeruginosa isolate CDC 231, β-lactamase type KPC/OXA, read-out: MIC): 8 µg/mL (≈ 13.7 µM)
MIC (Pseudomonas aeruginosa; [9]): 32 µg/mL (≈ 54.6 µM)
MIC (Pseudomonas aeruginosa; P. aeruginosa isolate CDC 246, β-lactamase type NDM/OXA, read-out: MIC): > 64 µg/mL
MIC (Pseudomonas aeruginosa; P. aeruginosa isolate CDC 250, β-lactamase type NDM/OXA, read-out: MIC): > 64 µg/mL
MIC (Pseudomonas aeruginosa; P. aeruginosa isolate CDC 356, β-lactamase type KPC, read-out: MIC): 2 µg/mL (≈ 3.42 µM)
MIC (Pseudomonas aeruginosa; [10]): > 64 µg/mL
MIC (Pseudomonas aeruginosa; [11]): > 64 µg/mL
MIC (Pseudomonas aeruginosa; [12]): 2 µg/mL (≈ 3.42 µM)
MIC (Pseudomonas aeruginosa; P. aeruginosa isolate CDC 516, β-lactamase type KPC/AmpC, read-out: MIC): 2 µg/mL (≈ 3.42 µM)
MIC (Acinetobacter baumannii; A. baumannii isolate CDC 273, β-lactamase type ESBL/OXA, read-out: MIC): > 64 µg/mL
MIC (Acinetobacter baumannii; A. baumannii isolate CDC 274, β-lactamase type ESBL/OXA, read-out: MIC): 16 µg/mL
MIC (Acinetobacter baumannii; A. baumannii isolate CDC 275, β-lactamase type ESBL/OXA, read-out: MIC): > 64 µg/mL
MIC (Acinetobacter baumannii; A. baumannii isolate CDC 277, β-lactamase type ESBL/OXA, read-out: MIC): 16 µg/mL
MIC (Acinetobacter baumannii; A. baumannii isolate CDC 284, β-lactamase type ESBL/OXA, read-out: MIC): 32 µg/mL
MIC (Acinetobacter baumannii; A. baumannii isolate CDC 307, β-lactamase type OXA, read-out: MIC): > 64 µg/mL
MIC (Acinetobacter baumannii; A. baumannii isolate CDC 308, β-lactamase type ESBL/OXA, read-out: MIC): > 64 µg/mL
MIC (Acinetobacter baumannii; A. baumannii isolate CDC 311, β-lactamase type OXA, read-out: MIC): > 64 µg/mL
MIC (Acinetobacter baumannii; A. baumannii isolate CDC 312, β-lactamase type OXA, read-out: MIC): 1 µg/mL
MIC (Acinetobacter baumannii; A. baumannii isolate CDC 313, β-lactamase type ESBL/OXA, read-out: MIC): 4 µg/mL
MIC (Acinetobacter baumannii; NCTC13304, A. baumannii isolate NCTC 13304, β-lactamase type OXA, read-out: MIC): 0.5 µg/mL
Structure (SMILES): NCC[C@H](O)C(=O)N[C@@H]1C[C@H](N)[C@@H](O[C@H]2O[C@H](CN)[C@@H](O)[C@H](O)[C@H]2O)[C@H](O)[C@H]1O[C@H]1O[C@H](CO)[C@@H](O)[C@H](N)[C@H]1O [Amikacin]
